{"source": "patent US20100095963A1", "about": "“PHARMACEUTICAL COMPOSITIONS” (Schering Corporation, priority 2002, published 2010)", "origin": "cited, not measured here", "key": {"[1]": {"assay": "not given", "remark": "listed apart in the source"}}}
{"smiles": "C[C@@H]1C[C@H]2[C@@H]3CCC4=CC(=O)C=C[C@]4(C)[C@@]3(Cl)[C@@H](O)C[C@]2(C)[C@@]1(OC(=O)c1ccco1)C(=O)CCl", "note": "[Mometasone furoate, 9,21-Dichloro-11(beta),17-dihydroxy-16(alpha)-methylpregna-1,4-diene-3,20-dione 17-(2 furoate)]", "values": [{"measurement": "solubility in acetone", "setting": "acetone", "result": "soluble"}, {"measurement": "solubility in chloroform", "setting": "chloroform", "result": "soluble"}, {"measurement": "solubility in ethanol", "setting": "ethanol", "result": "slightly soluble"}, {"measurement": "solubility in isopropanol", "setting": "isopropanol", "result": "slightly soluble"}, {"measurement": "solubility in methanol", "setting": "methanol", "result": "slightly soluble"}, {"measurement": "solubility in tetrahydrofuran", "setting": "tetrahydrofuran", "result": "freely soluble"}, {"measurement": "solubility in water", "setting": "water", "result": "practically insoluble"}, {"measurement": "partition coefficient between octanol and water", "setting": "[1]", "result": "greater than 5000"}]}
